The source made the active and inactive calls.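 How the source made its calls: active means half-inhibitory concentration IC50 below 35 µM against dopamine receptor luciferase signal; inactive means the rest.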 A value given as a limit tells only on which side of the number the result lay.

The subject of this test is HEK293 dopamine receptor CRE-luciferase, antagonist mode. As to the kind of experiment: dopamine receptor CRE reporter signal reduction – cell-based, HEK293, luminescence, dry powder, counter-screen for LGR2 project, dose response (AID 743501). A general note: The purpose of a counterscreen is to sort out artefacts and off-target activity.
The IC50 is the midpoint of a concentration-inhibition curve. Take `C[C@H](CO)N1C[C@H](C)[C@H](CN(C)C(=O)Nc2ccccc2)OCCCC[C@H](C)Oc2ccc(NC(=O)C3CCCCC3)cc2C1=O`: the IC50 was under 35 µM. The figure for `C[C@@H]1CCCCO[C@H](CN(C)C(=O)Nc2ccc(F)cc2)[C@H](C)CN([C@@H](C)CO)C(=O)c2cc(NC(=O)C3CCCCC3)ccc2O1` is > 35 µM (inactive). `C[C@H](CO)N1C[C@H](C)[C@H](CN(C)C(=O)Nc2ccc3c(c2)OCO3)OCCCC[C@H](C)Oc2ccc(NC(=O)C3CCCCC3)cc2C1=O`: the IC50 was under 35 µM.

For the compound `COc1ccc(NC(=O)N(C)C[C@@H]2OCCCC[C@H](C)Oc3ccc(NC(=O)C4CCCCC4)cc3C(=O)N([C@H](C)CO)C[C@@H]2C)cc1`, the IC50 is > 35 µM (inactive).

Regarding `C[C@H](CO)N1C[C@H](C)[C@H](CN(C)C(=O)Nc2ccc(F)cc2)OCCCC[C@H](C)Oc2ccc(NC(=O)C3CCCCC3)cc2C1=O`, the IC50 was under 35 µM.

The record behind these values is PubChem BioAssay AID743501 (Broad Institute, 2014).
